Values quoted from earlier work, collected in patent publication US9572848B1, “Composition of matter for sexual dysfunction” (Aemes Research L.L.L.P., priority 2014, dated 2017).

Assays:
[1] = tested on: blood pressure; conditions: meta-analysis
[2] = tested on: growth hormone (GH) levels; conditions: oral arginine, 9-gram dose; placebo 2.9 (+/−0.7)

N=C(N)NCCC[C@H](N)C(=O)O [L-arginine]
Reduction of DBP, pooled estimate [1]: 2.7 mmHg
Reduction of SBP, pooled estimate [1]: 5.4 mmHg
Mean peak GH level [2]: 6.4 (+/−1.3) μg/L
